Reference: publication PMC8170132, “Kinetics of Abacavir-Induced Remodelling of the Major Histocompatibility Complex Class I Peptide Repertoire” (Frontiers in Immunology, 2021)

What was measured:
[1] = target: T1, HLA-B*57:01 (Homo sapiens, UniProt P01889, D201E/D98Y/E176V/E187L/E204Q/E69M/E70A/G107R/I90N/K202T/L105A/L119I/N104I/N87E/Q89R/Q94S/R106L/R155S/R180L/R86G/S101N/S121V/S35A/S48A/T118I/V36M/Y140S/Y91M); assay: LC-MRM-MS quantitation of HLA ligands and co-purified abacavir from abacavir treated C1R.B*57:01 cells; assay type: cell-based; conditions: for Abacavir dependence: LC-MRM-MS detection, classification of the peptide based on abacavir dependency; for Linear regression slope: linear regression of LC-MRM-MS peptide abundance over abacavir treatment time; for Category of abacavir impact on peptide abundance in the immunopeptidome: C1R.B*57:01, 35 µM abacavir 0-16 h or constant, linear regression of normalised abundance, three replicates
[2] = target: T1, HLA-B*57:01; set-up: method as in Illing et al., Nature 2012; conditions: ref Illing et al., Nature 2012, cited from earlier work; for HLA-B*57:01 previous observation by LC-MS/MS, Abacavir treated: abacavir treated cells; for HLA-B*57:01 previous observation by LC-MS/MS, Untreated: untreated cells

For RVAQLEQVYI, the Abacavir dependence [1] is given as “Dependent”, the Linear regression slope [1] is given as 0.0208 and the “HLA-B*57:01 previous observation by LC-MS/MS, Abacavir treated” value [2] is given as “+ (+ (< 5% FDR))”.

In the case of SSAEVKVTI, the Abacavir dependence [1] is listed as “Dependent”, the Linear regression slope [1] is listed as 0.0466 and the “HLA-B*57:01 previous observation by LC-MS/MS, Abacavir treated” value [2] is listed as “+ (+ (< 5% FDR))”.

In the case of VTTDIQVKV, the Abacavir dependence [1] is listed as “Dependent”, the Linear regression slope [1] is listed as 0.0428 and the “HLA-B*57:01 previous observation by LC-MS/MS, Abacavir treated” value [2] is listed as “+ (+ (< 5% FDR))”. For the same sequence, the “HLA-B*57:01 previous observation by LC-MS/MS, Untreated” value [2] was “+ (+ (< 5% FDR))”.

In the case of TSQAGLFRLW, the Abacavir dependence [1] is listed as “Minimal”, the Linear regression slope [1] is listed as 0.0067 and the “HLA-B*57:01 previous observation by LC-MS/MS, Abacavir treated” value [2] is listed as “+ (+ (< 5% FDR))”. The “HLA-B*57:01 previous observation by LC-MS/MS, Untreated” value [2] was “+ (+ (< 5% FDR))”.

For KAIDYIRFL, the Abacavir dependence [1] is given as “Inhibited”, the Linear regression slope [1] is given as -0.0293 and the “HLA-B*57:01 previous observation by LC-MS/MS, Abacavir treated” value [2] is given as “+ (+ (< 5% FDR))”. The “HLA-B*57:01 previous observation by LC-MS/MS, Untreated” value [2] was “# (# (> 5% FDR))”.

In the case of “LTTKLTNTNI [non-labelled HLA-B*57:01 ligand]”, the “Category of abacavir impact on peptide abundance in the immunopeptidome” value [1] is reported as “Dependent”, the Abacavir dependence [1] is reported as “Dependent” and the Linear regression slope [1] is reported as 0.0544. For the same sequence, the “HLA-B*57:01 previous observation by LC-MS/MS, Abacavir treated” value [2] was “+ (+ (< 5% FDR))”.

With LSKPNPPSL [HLA-B*57:01 ligand] the “Category of abacavir impact on peptide abundance in the immunopeptidome” value [1] was “Minimal”, the Abacavir dependence [1] was “Minimal” and the Linear regression slope [1] was -0.0172. For the same sequence, the “HLA-B*57:01 previous observation by LC-MS/MS, Abacavir treated” value [2] was “+ (+ (< 5% FDR))” and the “HLA-B*57:01 previous observation by LC-MS/MS, Untreated” value [2] was “+ (+ (< 5% FDR))”.

In the case of STLHLVLRL, the Abacavir dependence [1] is listed as “Dependent”, the Linear regression slope [1] is listed as 0.0280 and the “HLA-B*57:01 previous observation by LC-MS/MS, Abacavir treated” value [2] is listed as “+ (+ (< 5% FDR))”. For the same sequence, the “HLA-B*57:01 previous observation by LC-MS/MS, Untreated” value [2] was “+ (+ (< 5% FDR))”.

For LSSDINVRSW, the Abacavir dependence [1] is given as “Minimal”, the Linear regression slope [1] is given as -0.0197 and the “HLA-B*57:01 previous observation by LC-MS/MS, Abacavir treated” value [2] is given as “+ (+ (< 5% FDR))”. The “HLA-B*57:01 previous observation by LC-MS/MS, Untreated” value [2] was “+ (+ (< 5% FDR))”.

In the case of KTLEGEFSV, the Abacavir dependence [1] is listed as “Dependent”, the Linear regression slope [1] is listed as 0.0463 and the “HLA-B*57:01 previous observation by LC-MS/MS, Abacavir treated” value [2] is listed as “+ (+ (< 5% FDR))”.

In the case of ASAGNLKPVW, the Abacavir dependence [1] is listed as “Minimal”, the Linear regression slope [1] is listed as 0.0136 and the “HLA-B*57:01 previous observation by LC-MS/MS, Abacavir treated” value [2] is listed as “+ (+ (< 5% FDR))”. For the same sequence, the “HLA-B*57:01 previous observation by LC-MS/MS, Untreated” value [2] was “+ (+ (< 5% FDR))”.

For TALPLLKQF, the Abacavir dependence [1] is given as “Inhibited”, the Linear regression slope [1] is given as -0.0283 and the “HLA-B*57:01 previous observation by LC-MS/MS, Abacavir treated” value [2] is given as “+ (+ (< 5% FDR))”. The “HLA-B*57:01 previous observation by LC-MS/MS, Untreated” value [2] was “+ (+ (< 5% FDR))”.
